Experimental data as given in patent US7763441B2, “Modulators of gluconeogenesis” (Wyeth, priority 2006, dated 2010).
Read-outs that look alike come from different tables or passages of the source. Values belong to the molecule of their own block, whether it stands above or below them.

Tests used:
EGR1 expression = details: H4IIE, AICAR
Experimental: The anti-tubulin blot is a loading control.
(§1) Double-stranded cDNA was synthesized starting with 5 μg of total RNA from the cells using the SuperScript System (Invitrogen, Carlsbad, Calif.). The cDNA was purified by filtration through Multiscreen filter plate (Millipore), and transcribed in vitro using T7 RNA polymerase (Epicentre, Madison, Wis.) and biotinylated nucleotides (Perkin-Elmer, Boston, Mass.). Hybridization buffer containing the spike pool reagent was added to each of the fragmented cRNA mixtures and each sample was hybridized to the Mouse Genome 430 2.0 array ([…]) or Rat Genome 230 2.0 array (RAE230) (Affymetrix, Santa Clara) at 45° C. for 18 hours as recommended by the manufacturer. The hybridized chips were washed and stained using Affymetrix Fluidics Station 450 and the EukGE-WS2v4—450 protocol as recommended by the manufacturer. The staining was performed using streptavidin-phycoerythrin conjugate (SAPE; Molecular Probes, Eugene, Oreg.), followed by biotinylated antibody against streptavidin (Vector Laboratories, Burlingame, Calif.), and then SAPE. The chips were scanned using an Affymetrix Genechip Scanner and .cel files were generated with Affymetrix Microarray Suite 5.0 (MAS 5.0) software.
Total RNA was isolated from these cells and hybridized on the RAE430 2.0 array and analyzed in the same manner as the AML12 cells.

JNK = details: H4IIE cells, data not shown
Description: Members of the DUSP family show differing specificities for the MAPK family of kinases. DUSP4 has been previously shown to dephosphorylate and inactivate the MAPK family members ERK and JNK, but not p38.
(§2) FIG. 7A includes a Western blot probed with anti-p38 or anti-phosphor-p38 antibodies (Cell Signaling Technology) at a 1:1000 dilution.

rat PEPCK promoter = assay: PEPCK-SEAP reporter assay in H4IIE cells; type: cell-based
Experimental: FIG. 5 schematically depicts the effects of EGR1 and DUSP4 expression levels on PEPCK promoter activity. For the experiments shown in panels A and B, H4IIE hepatocytes were transfected with the PEPCK-SEAP reporter plasmid and either DUSP4 or EGR1 expression plasmids or DUSP4 or EGR1 siRNA Smartpools. 24 hours after transfection the media were changed to 0.5%FBS/DMEM for 5 hours. […] Panel A depicts the effects of EGR1 modulation on PEPCK promoter activity; panel B depicts the effects of DUSP4 modulation on PEPCK promoter activity.
(§3) Panel A is a Western blot of H4IIE cells starved for 6 hours and then treated as indicated by the chart for 2 hours. […] is a specific p38 chemical inhibitor. LPS is included as a positive control of p38 activation.
The rat PEPCK promoter (−548 to +73) was amplified from rat genomic DNA using primers 5′-[…]-3′ (SEQ ID NO:8) and 5′-[…]-3′ (SEQ ID NO:9) (Xu et al. (2003)) J. Biol. Chem. 278:30187-30192). The human G6P promoter (−1227 to +57) was amplified from human genomic DNA using primers: 5′-[…]-3′ (SEQ ID NO:10) and 5′-[…]-3′ (SEQ ID NO:11). The promoters were subsequently cloned into XhoI and HindIII sites of pSEAP-BASIC vector (Clontech).
H4IIE cells were seeded in 24-well plates and transfected at 90% confluence using Tfx-50 Reagent (Promega). 0.9 μg of each SEAP reporter and 0.2 μg of pCMV-β-gal (BD Biosciences) were included. 0.4 μg of pCMV-XL5-human-DUSP4 (NM_001394, Origene) or pCMV-Sport6-human EGR1 (BC073983, Open Biosystems), or pMEV2HA-P38-WT and P38-EE (Biomyx), or empty pCMV-Sport6 were included. SiGenome Smartpool reagents were included at […]. […] 60 μl of the media was utilized for the SEAP assay (Great EscAPe SEAP Kit, BD Biosciences) and cell lysate was used for β-gal assay (Luminescent β-galactosidase detection kit, BD Biosciences).

G6P and PEPCK expression = details: rat hepatoma cells or primary hepatocytes (Lochhead et al. 2000); cited from earlier work
[1] = system: rat DUSP4 promoter EGR1 site; details: H4IIE, AICAR 2 or 6 hours
Experimental: Arrows indicate sites of primers used for chromatin immunoprecipitation assay (−72 to −261 bp from the transcriptional start site).
To cross-link protein and DNA, formaldehyde was added at a 1% (vol/vol) concentration to H4IIE cells in a 100 mm dish. Fixation proceeded for 10 min at room temperature with gentle shaking and was stopped with the addition of glycine to a final concentration of 0.125M, and then the mixture was incubated at room temperature for 5 min. The cells were then washed twice with cold phosphate-buffered saline (PBS), harvested, and washed once with PBS containing PMSF. The cell pellet was lysed with immunoprecipitation assay lysis buffer (150 mM NaCl, 1% NP-40, 0.5% deoxycholate, 0.1% sodium dodecyl sulfate [SDS], 50 mM Tris [pH 8], 5 mM EDTA and protease inhibitors [1 mM PMSF, 10 μg of aprotinin/ml, 10 μg of leupeptin/ml]) and incubated on ice for 10 min. The resulting lysate was sonicated to give chromatin of an average length of 600 to 1,000 bp. The lysate was then microcentrifuged at 14,000 rpm for 10 min at 4° C. The lysate was then precleared with 50 μl of protein A beads (IPA 400; Repligen) for 15 min. Immunoprecipitations were performed overnight with 2 μg of antibody in a total volume of 500 μl at 4° C. […] A 5 μl aliquot was analyzed by PCR with Vent polymerase (NEB). […]

p38 = target: T1, p38 (Rattus norvegicus, UniProt P70618); assay: Western blot of p38 phosphorylation in serum starved H4IIE cells; type: cell-based; details: 2 hours
T1 construct: addition of cAMP to serum starved H4IIE cells for 2 hours leads to an increase in the phosphorylation of p38; endogenous in cells; host or cells: H4IIE rat hepatoma cells
Experimental: as §3, §2

EGR1 message = details: AML12, 500 μM AICAR
Experimental: (§4) Each gene is represented by a single row and each sample, in triplicate at each time point, by a column. […] The mean expression±STD of DUSP4 (qualifier #1428834_at) and EGR1 (qualifier #1417065_at) are illustrated graphically as well as highlighted in yellow on the cluster.
(§5) AML12 cells were maintained in DMEM/F12 medium containing 10% FCS, […], 5 ng/ml selenium and 40 ng/ml dexamethasone.
as §1
(§6) Using normalized data, after removing lowly expressed genes, we performed ANOVA analysis.

DUSP4 message = details: AML12, 500 μM AICAR
Experimental: as §4, §5, §1, §6

Fao hepatoma cells = assay: Glucose production assay in Fao cells; type: cell-based; details: cAMP plus dexamethasone, 500 μM AICAR
Experimental: For the experiment shown in panel A, Fao cells were transfected with either EGR1 or DUSP4 siRNA Smartpools. […] The cells were then cultured with phenol-red and glucose free RPMI1640 with 20 mM lactate and 2mM pyruvate. After 3 hours the media was collected and glucose output was determined. The data are presented as relative glucose production with the untreated transfected cells' glucose output set as 1. The asterisk indicates key changes between samples. P-values of all changes are ≦0.01 as determined by T-test. Panel B contains Western blots of EGR1 and DUSP4 or representative samples from the glucose production assay following transfection with the indicated siRNA Smartpools. The tubulin blot is included as a loading control.
1 million Fao cells cultured in RPMI1640 with 10% FCS were transfected with siGenome SMARTpool reagents for EGR1 (#M-100247-00), DUSP4 (#M-098966-00), or siCONTROL Non-Targeting siRNA (Dharmacon) using Optifect (Invitrogen) at 25 nM final concentration. […] Medium was collected 5 hours later and subjected to glucose measurement using the Amplex® Red Glucose/Glucose Oxidase Assay Kit (Molecular Probes). Cells were lysed and protein concentration was determined. The glucose output rate was normalized by cellular protein concentration and expressed as μg glucose/mg protein/5 hr. […]

DUSP4 mRNA = details: H4IIE, AICAR
Description: (§7) As in FIG. 2, the anti-tubulin blot is a loading control.
(§8) Taqman was utilized since the DUSP4 probe set on the RAE430 2.0 array was not as sensitive as the DUSP4 set on the MOE430 2.0 array.

DUSP4 protein = details: H4IIE
Experimental: as §7
Lysates were prepared with a buffer containing 20 mM Tris (pH 7.5), 150 mM NaCl, 1 mM EDTA, 1 mM EGTA, 1% Triton X-100, 2.5 mM sodium pyrophosphate, 1 mM β-glycerophosphate, 1 mM sodium vanadate, and 1 μg of leupeptin/ml. 20 μg of lysate for each sample was run on NuPAGE 10% polyacrylamide bis/tris gels (Invitrogen) and transferred to PVDF membrane. Following blocking with 5% milk in TBS, anti-EGR1 (SC-110, Santa Cruz) at 1:1000 or anti alpha-tubulin (Abcam) at 1:2000 was blotted in TBS with 0.1% Tween. Goat anti-mouse HRP (Jackson Immuno-Research) was used at 1:5000 and blots were visualized by using enhanced chemiluminescence (NEN).
as §8

EGR1 = details: Bauer et al. 2005; cited from earlier work

T1 sequence (P70618 whole entry): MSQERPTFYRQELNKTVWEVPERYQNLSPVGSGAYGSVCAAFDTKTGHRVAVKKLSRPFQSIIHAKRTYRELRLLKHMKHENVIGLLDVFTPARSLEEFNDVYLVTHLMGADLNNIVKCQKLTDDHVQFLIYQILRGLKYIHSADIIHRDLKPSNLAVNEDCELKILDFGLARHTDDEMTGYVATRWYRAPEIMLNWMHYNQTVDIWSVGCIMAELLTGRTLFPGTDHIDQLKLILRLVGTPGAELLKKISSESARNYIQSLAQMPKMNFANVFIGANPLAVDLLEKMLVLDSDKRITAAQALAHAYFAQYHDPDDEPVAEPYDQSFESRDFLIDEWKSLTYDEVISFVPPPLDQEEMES

cAMP-induced phosphorylation of p38 (Western blot) (p38): inhibited
Molecule: NC(=O)c1ncn([C@@H]2O[C@H](CO)[C@@H](O)[C@H]2O)c1N [AICAR]
EGR1 expression increase relative to control (EGR1 expression; 2 hours): 6 fold | EGR1 expression increase relative to control (EGR1 expression; 6 hours): 5 fold | EGR1 expression increase relative to control (EGR1 expression; 24 hours): 3 fold | JNK activity (JNK): not inhibited | Inhibition of PEPCK activation at low AICAR concentration (rat PEPCK promoter; 100 μM AICAR by itself): not sufficient to inhibit PEPCK activation | PEPCK transcription (activation) (rat PEPCK promoter; 100 μM AICAR, without exogenous EGR1): 12 fold | Repression of cAMP and dexamethasone activation of PEPCK reporter (rat PEPCK promoter; AICAR, control siRNA included): fully repressed | Effect on cAMP activation of the PEPCK promoter (rat PEPCK promoter; FIG. 7B): repress cAMP activation of the PEPCK promoter | Inhibition of cAMP and dexamethasone activation of the PEPCK promoter (rat PEPCK promoter; PEPCK-SEAP, AICAR 500 μM or DUSP4 expression vector): approximately 36 fold | Expression of G6P and PEPCK (G6P and PEPCK expression): inhibits expression G6P and PEPCK | EGR1 site of DUSP4 promoter amplified after anti-EGR1 chromatin immunoprecipitation (189 bp PCR product) [1]: amplified | EGR1 increase relative to control (EGR1 message; 2 hours): 3 fold | EGR1 increase relative to control (EGR1 message; 6 hours): 3 fold | EGR1 increase relative to control (EGR1 message; 24 hours): 2 fold | DUSP4 message increase relative to untreated controls (DUSP4 message; 2 hours): 4 fold | DUSP4 message increase relative to untreated controls (DUSP4 message; 6 hours): 6 fold | DUSP4 message increase relative to untreated controls (DUSP4 message; 24 hours): 5 fold | Glucose output after inhibition, distance from untreated levels (Fao hepatoma cells): ≤ 30% | DUSP4 message increase (DUSP4 mRNA; 2 hours): 20 fold | DUSP4 message increase (DUSP4 mRNA; 6 hours): 4 fold | DUSP4 message increase (DUSP4 mRNA; 24 hours): 4 fold | Time of AICAR treatment within which DUSP4 is induced (DUSP4 protein; AICAR): ≤ 2 h | DUSP4 protein level (Western blot) (DUSP4 protein; AICAR time course, decrease to more basal levels at 12 hours): increase of DUSP4 protein at 2 and 6 hours

Molecule: CCCCCCCCCCCCCC(=O)O[C@@H]1[C@@H](C)[C@@]2(O)[C@@H](C=C(CO)C[C@]3(O)C(=O)C(C)=C[C@@H]23)[C@@H]2C(C)(C)[C@]12OC(C)=O [TPA, 12-O-tetradecanoylphorbol-13-acetate]
EGR1 biosynthesis (EGR1): strongly upregulates EGR1 biosynthesis

cAMP-induced phosphorylation of p38 (Western blot) (p38): inhibited
Molecule: SB205830
